From patent US8518903B2, “Use of toll-like receptor-9 agonists” (University of Pittsburgh—of the Commonwealth System of …, priority 2007, dated 2013)

Tests used:
murine intestinal mucosa = assay: LPS-dependent signaling and inflammation in the murine intestinal mucosa in vivo; design: species or system mouse; settings: LPS + CpG vs LPS
Excerpt: FIG. 10. Experimental design to assess whether TLR9 activation affects TLR4-mediated inflammation in vivo.
(A). Western blot showing levels of signaling molecules phospho-p38 and phospho-ERK (relative to actin) in mice which were either untreated (Ctrl) or treated with LPS, LPS+CpG, or CpG. (B) Bar graph showing serum levels of the inflammatory cytokine IL-6 in mice which were either untreated (Ctrl) or treated with LPS, LPS+CpG, or CpG.
Experiments were then designed to determine whether the above phenomena, observed in vitro, could be confirmed in vivo (see FIG. 10).

[1] = tested on: experimental NEC in newborn mice; assay: Murine NEC model in NFkB-GFP transgenic mice (histology, mucosal TNF-α RTPCR, NFκB activation); format: in vivo, mouse; settings: NEC mice
Method: FIG. 27A-G. CpG-ODN-HS and CpG-DNA reduce the development of experimental NEC in vivo in newborn mice. Newborn NEC and control mice were injected with CpG-ODN-HS or CpG-DNA. A. Histology (H&E) of terminal ileum of breast fed mouse. B. Histology (H&E) of terminal ileum of mouse after induction of NEC. C. Histology (H&E) of terminal ileum of mouse treated with CpG-DNA, after which conditions which induced NEC were applied. D. Histology (H&E) of terminal ileum of mouse treated with CpG-ODN-HS, after which conditions which induced NEC were applied. E. Histology (H&E) of terminal ileum of breast fed mouse treated with CpG-ODN-HS. F. Histology (H&E) of terminal ileum of breast fed mouse treated with CpG-DNA. G. Severity of NEC in newborn mice as scored by a blinded pediatric pathologist. *p<0.05 vs. NEC in saline-injected mice.
FIG. 28. CpG-ODN-HS and CpG-DNA reduce the expression of mucosal TNF-α in NEC newborn mice in vivo.
FIG. 29A-D. Confocal microscopy showing the extent of NFkB activation in mice with NEC in the absence or presence of CpG-ODN-HS. CpG-ODN-HS reduces the level of NFkB activation in NEC newborn mice in vivo. The mice express NFkB-GFP, and sections were stained with anti-GFP antibody (red; arrow).
The effect of the TLR9 agonist CpG-ODN 5′ […] 3′ (SEQ ID NO:10; referred to herein as CpG-ODN-HS) on the mediator of activated TLR4, NFκB, was examined in a murine NEC model (previously described, above). The effect of CpG-ODN-HS on inflammation in the NEC murine model was also examined as a measured by TNF-α expression, which is an index of inflammation.
Materials and methods. Phosphorothioated CpG-ODN-HS and oligodeoxynucleotide (ODN) 1826 ([…]) (SEQ ID NO:6; referred to herein as CpG-DNA) were synthesized by the University of Pittsburgh DNA synthesis facility. ODNs were confirmed to be endotoxin-free by Limulus assay. NFkB-GFP antibody was obtained from Santa Cruz and Abcam. The extent of nuclear translocation was determined in an adaptation of the methodology of Ding and colleagues. In brief, a threshold limit was set based upon the emission signal for the nuclear stain DRAQ5, which therefore defined a nuclear region of interest (ROI). To define a corresponding cytoplasmic region of interest, a circular region 12 pixels beyond the nucleus was stenciled upon each cell. The average integrated pixel intensity pertaining to the corresponding NFkB emission within the cytoplasmic and nuclear regions was then determined for more than 200 cells per treatment group in at least four experiments per group, using MetaMorph software version 6.1 (Molecular Devices Corporation, Downingtown, Pa.).
Mucosal TNF-α expression was measured using quantitative real-time PCR (RTPCR). Quantitative real-time PCR in cultured enterocytes and intestinal tissue using the BioRad iCycler (Biorad, Hercules, CA) was performed as in (Leaphart, C. L., J. Cavallo, S. C. Gribar, S. Cetin, J. Li, M. F. Branca, T. D. Dubowski, C. P. Sodhi, and D. J. Hackam. 2007. A Critical Role for TLR4 in the Pathogenesis of Necrotizing Enterocolitis by Modulating Intestinal Injury and Repair. J Immunology 179:4808-4820). Oligonucleotide primer pairs used for RTPCR were as follows: forward: 5′ […] 3′ (SEQ ID NO:14), reverse: 5′ […] 3′ (SEQ ID NO:15); and forward: 5′ […] 3′ (SEQ ID NO:16), reverse: 5′ […] 3′ (SEQ ID NO:17). Gene expression was normalized to β-actin expression. Where indicated, gene expression was assessed on 2.5% agarose gels using ethidium bromide staining. […]

## 5′-TCCATGACGTTCCTGACGTT-3′ [CpG-DNA]
Murine intestinal mucosa; mice
  serum IL-6 level: attenuated
Murine intestinal mucosa; murine intestinal mucosa
  level of phosphorylated ERK (LPS-dependent signaling): attenuated
  level of phosphorylated p38 (LPS-dependent signaling): attenuated
[1]; RTPCR
  level of expression of mucosal TNF-α in terminal ileum: reduced
[1]; treated vs untreated
  NEC pathology (histology of terminal ileum): inhibition of the NEC pathology
